Positions of bridges follow the written chain, without caps; N, C: chain ends. Non-standard residues stand in square brackets, D forms with d. Residues, ends and D or L forms follow the SMILES beside them. Phe(3,4-(OMe)2) = COc1ccc(C[C@H](N)C(=O)O)cc1OC; Phe(4-CONH2) = NC(=O)c1ccc(C[C@H](N)C(=O)O)cc1; Phe(4-tBu) = CC(C)(C)c1ccc(C[C@H](N)C(=O)O)cc1; Phe(3,5-F2) = N[C@@H](Cc1cc(F)cc(F)c1)C(=O)O; Phe(4-CH2NH2) = NCc1ccc(C[C@H](N)C(=O)O)cc1; Phe(3-CN) = N#Cc1cccc(C[C@H](N)C(=O)O)c1; Phe(4-CN) = N#Cc1ccc(C[C@H](N)C(=O)O)cc1; Phe(4-Cl) = N[C@@H](Cc1ccc(Cl)cc1)C(=O)O; Phe(4-F) = N[C@@H](Cc1ccc(F)cc1)C(=O)O; Hyp = O=C(O)[C@@H]1C[C@@H](O)CN1; NMeNle = CCCC[C@H](NC)C(=O)O; NMeA = CN[C@@H](C)C(=O)O; Dap = NC[C@H](N)C(=O)O
Key:
[1] = molecular target: T1, LK35.2-hPD-L1 cells / PE-labeled PD-1-Ig (Homo sapiens, UniProt Q9NZQ7); test: LK35.2-hPD-L1 cell binding high-content screening assay; format: cell-based; settings: cell binding assay, cell line not given; cluster symbol; read-out: CBA IC50 cluster
T1 construct: expressed in transfected cells; host or cells: LK35.2 mouse B cell line
T1 sequence (Q9NZQ7 19-290): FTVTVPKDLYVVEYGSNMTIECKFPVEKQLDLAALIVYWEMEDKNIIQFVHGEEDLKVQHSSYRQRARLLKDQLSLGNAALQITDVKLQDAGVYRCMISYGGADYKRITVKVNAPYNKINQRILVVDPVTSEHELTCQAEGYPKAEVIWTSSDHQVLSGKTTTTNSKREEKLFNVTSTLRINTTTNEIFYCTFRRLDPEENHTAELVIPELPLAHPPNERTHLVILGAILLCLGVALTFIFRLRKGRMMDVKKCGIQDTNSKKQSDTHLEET
How it was run: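 Fluorescent PD-1-Ig binding to PD-L1-expressing LK35.2 cells, imaged after washing. Conditions: 1 nM PE-PD-1-Ig, 37 °C, 1 h, RPMI with 10% fetal calf serum.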

[2] = molecular target: T2, Human PD-L1/PD-1 (Homo sapiens, UniProt Q9NZQ7); test: HTRF PD-1-Ig/PD-L1-His binding assay (human PD-L1); settings: cluster symbol; read-out: HTRF IC50 cluster
T2 construct: made in house; host or cells: HEK293T
T2 sequence (Q9NZQ7 with tags, fused parts or gaps): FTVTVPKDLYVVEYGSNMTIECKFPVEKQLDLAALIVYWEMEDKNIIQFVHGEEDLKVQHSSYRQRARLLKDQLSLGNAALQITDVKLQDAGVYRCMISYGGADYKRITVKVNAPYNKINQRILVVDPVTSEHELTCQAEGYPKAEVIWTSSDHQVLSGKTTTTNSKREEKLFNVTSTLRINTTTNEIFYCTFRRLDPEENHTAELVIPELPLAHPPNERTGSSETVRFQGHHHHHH
How it was run: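 HTRF read-out: Eu cryptate anti-Ig mAb 1 nM final, APC anti-His mAb 20 nM final, added over the binding reaction. Proteins were PD-1-Ig and PD-L1-His ectodomain fusions. Buffer was dPBS, 0.1% BSA, 0.05% Tween-20.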

Row | IC50 [1] | IC50 [2] | SMILES
1 | 4.78 to 72.9 nM | 6.76 to 30.3 nM | CCCC[C@H]1C(=O)N(C)[C@@H](CCCC)C(=O)N[C@@H](CCCNC(=N)N)C(=O)N[C@H](C(=O)NCC(N)=O)CSCC(=O)N[C@@H](Cc2cccc(C#N)c2)C(=O)N(C)[C@@H](C)C(=O)N[C@@H](CC(N)=O)C(=O)N2CCC[C@H]2C(=O)N[C@@H](CN)C(=O)N[C@@H](CC(C)C)C(=O)N2C[C@H](O)C[C@H]2C(=O)N[C@@H](Cc2c[nH]c3ccccc23)C(=O)N[C@@H](CO)C(=O)N[C@@H](Cc2c[nH]c3ccccc23)C(=O)N1C [Example 7037] ({CH2CO}-[Phe(3-CN)][NMeA]NP[Dap]L[Hyp]WSW[NMeNle][NMeNle]RCG-NH2; thioether N-14)
2 | 0.158 to 4.71 nM | 0.385 to 6.74 nM | CCCC[C@H]1C(=O)N(C)[C@@H](CCCC)C(=O)N[C@@H](CCCNC(=N)N)C(=O)N[C@H](C(=O)NCC(N)=O)CSCC(=O)N[C@@H](Cc2ccc(C#N)cc2)C(=O)N(C)[C@@H](C)C(=O)N[C@@H](CC(N)=O)C(=O)N2CCC[C@H]2C(=O)N[C@@H](CN)C(=O)N[C@@H](CC(C)C)C(=O)N2C[C@H](O)C[C@H]2C(=O)N[C@@H](Cc2c[nH]c3ccccc23)C(=O)N[C@@H](CO)C(=O)N[C@@H](Cc2c[nH]c3ccccc23)C(=O)N1C [Example 7038] ({CH2CO}-[Phe(4-CN)][NMeA]NP[Dap]L[Hyp]WSW[NMeNle][NMeNle]RCG-NH2; thioether N-14)
3 | 0.158 to 4.71 nM | 0.385 to 6.74 nM | CCCC[C@H]1C(=O)N(C)[C@@H](CCCC)C(=O)N[C@@H](CCCNC(=N)N)C(=O)N[C@H](C(=O)NCC(N)=O)CSCC(=O)N[C@@H](Cc2ccc(OC)cc2)C(=O)N(C)[C@@H](C)C(=O)N[C@@H](CC(N)=O)C(=O)N2CCC[C@H]2C(=O)N[C@@H](CN)C(=O)N[C@@H](CC(C)C)C(=O)N2C[C@H](O)C[C@H]2C(=O)N[C@@H](Cc2c[nH]c3ccccc23)C(=O)N[C@@H](CO)C(=O)N[C@@H](Cc2c[nH]c3ccccc23)C(=O)N1C [Example 7039] ({CH2CO}-Y(Me)[NMeA]NP[Dap]L[Hyp]WSW[NMeNle][NMeNle]RCG-NH2; thioether N-14)
4 | 4.78 to 72.9 nM | 0.385 to 6.74 nM | CCCC[C@H]1C(=O)N(C)[C@@H](CCCC)C(=O)N[C@@H](CCCNC(=N)N)C(=O)N[C@H](C(=O)NCC(N)=O)CSCC(=O)N[C@@H](Cc2ccc(OC)c(OC)c2)C(=O)N(C)[C@@H](C)C(=O)N[C@@H](CC(N)=O)C(=O)N2CCC[C@H]2C(=O)N[C@@H](CN)C(=O)N[C@@H](CC(C)C)C(=O)N2C[C@H](O)C[C@H]2C(=O)N[C@@H](Cc2c[nH]c3ccccc23)C(=O)N[C@@H](CO)C(=O)N[C@@H](Cc2c[nH]c3ccccc23)C(=O)N1C [Example 7040] ({CH2CO}-[Phe(3,4-(OMe)2)][NMeA]NP[Dap]L[Hyp]WSW[NMeNle][NMeNle]RCG-NH2; thioether N-14)
5 | 4.78 to 72.9 nM | 6.76 to 30.3 nM | CCCC[C@H]1C(=O)N(C)[C@@H](CCCC)C(=O)N[C@@H](CCCNC(=N)N)C(=O)N[C@H](C(=O)NCC(N)=O)CSCC(=O)N[C@@H](Cc2ccc(C(N)=O)cc2)C(=O)N(C)[C@@H](C)C(=O)N[C@@H](CC(N)=O)C(=O)N2CCC[C@H]2C(=O)N[C@@H](CN)C(=O)N[C@@H](CC(C)C)C(=O)N2C[C@H](O)C[C@H]2C(=O)N[C@@H](Cc2c[nH]c3ccccc23)C(=O)N[C@@H](CO)C(=O)N[C@@H](Cc2c[nH]c3ccccc23)C(=O)N1C [Example 7041] ({CH2CO}-[Phe(4-CONH2)][NMeA]NP[Dap]L[Hyp]WSW[NMeNle][NMeNle]RCG-NH2; thioether N-14)
6 | 4.78 to 72.9 nM | 6.76 to 30.3 nM | CCCC[C@H]1C(=O)N(C)[C@@H](CCCC)C(=O)N[C@@H](CCCNC(=N)N)C(=O)N[C@H](C(=O)NCC(N)=O)CSCC(=O)N[C@@H](Cc2ccc(CN)cc2)C(=O)N(C)[C@@H](C)C(=O)N[C@@H](CC(N)=O)C(=O)N2CCC[C@H]2C(=O)N[C@@H](CN)C(=O)N[C@@H](CC(C)C)C(=O)N2C[C@H](O)C[C@H]2C(=O)N[C@@H](Cc2c[nH]c3ccccc23)C(=O)N[C@@H](CO)C(=O)N[C@@H](Cc2c[nH]c3ccccc23)C(=O)N1C [Example 7042] ({CH2CO}-[Phe(4-CH2NH2)][NMeA]NP[Dap]L[Hyp]WSW[NMeNle][NMeNle]RCG-NH2; thioether N-14)
7 | 4.78 to 72.9 nM | 6.76 to 30.3 nM | CCCC[C@H]1C(=O)N(C)[C@@H](CCCC)C(=O)N[C@@H](CCCNC(=N)N)C(=O)N[C@H](C(=O)NCC(N)=O)CSCC(=O)N[C@@H](Cc2cc(F)cc(F)c2)C(=O)N(C)[C@@H](C)C(=O)N[C@@H](CC(N)=O)C(=O)N2CCC[C@H]2C(=O)N[C@@H](CN)C(=O)N[C@@H](CC(C)C)C(=O)N2C[C@H](O)C[C@H]2C(=O)N[C@@H](Cc2c[nH]c3ccccc23)C(=O)N[C@@H](CO)C(=O)N[C@@H](Cc2c[nH]c3ccccc23)C(=O)N1C [Example 7043] ({CH2CO}-[Phe(3,5-F2)][NMeA]NP[Dap]L[Hyp]WSW[NMeNle][NMeNle]RCG-NH2; thioether N-14)
8 | 4.78 to 72.9 nM | 0.385 to 6.74 nM | CCCC[C@H]1C(=O)N(C)[C@@H](CCCC)C(=O)N[C@@H](CCCNC(=N)N)C(=O)N[C@H](C(=O)NCC(N)=O)CSCC(=O)N[C@@H](Cc2ccc(Cl)cc2)C(=O)N(C)[C@@H](C)C(=O)N[C@@H](CC(N)=O)C(=O)N2CCC[C@H]2C(=O)N[C@@H](CN)C(=O)N[C@@H](CC(C)C)C(=O)N2C[C@H](O)C[C@H]2C(=O)N[C@@H](Cc2c[nH]c3ccccc23)C(=O)N[C@@H](CO)C(=O)N[C@@H](Cc2c[nH]c3ccccc23)C(=O)N1C [Example 7044] ({CH2CO}-[Phe(4-Cl)][NMeA]NP[Dap]L[Hyp]WSW[NMeNle][NMeNle]RCG-NH2; thioether N-14)
9 | > 74.3 nM | > 30.5 nM | CCCC[C@H]1C(=O)N(C)[C@@H](CCCC)C(=O)N[C@@H](CCCNC(=N)N)C(=O)N[C@H](C(=O)NCC(N)=O)CSCC(=O)N[C@@H](Cc2ccc(C(C)(C)C)cc2)C(=O)N(C)[C@@H](C)C(=O)N[C@@H](CC(N)=O)C(=O)N2CCC[C@H]2C(=O)N[C@@H](Cc2cnc[nH]2)C(=O)N[C@@H](CC(C)C)C(=O)N2C[C@H](O)C[C@H]2C(=O)N[C@@H](Cc2c[nH]c3ccccc23)C(=O)N[C@@H](CO)C(=O)N[C@@H](Cc2c[nH]c3ccccc23)C(=O)N1C [Example 7045] ({CH2CO}-[Phe(4-tBu)][NMeA]NPHL[Hyp]WSW[NMeNle][NMeNle]RCG-NH2; thioether N-14)
10 | 0.158 to 4.71 nM | 0.385 to 6.74 nM | CCCC[C@H]1C(=O)N(C)[C@@H](CCCC)C(=O)N[C@@H](CCCNC(=N)N)C(=O)N[C@H](C(=O)NCC(N)=O)CSCC(=O)N[C@@H](Cc2ccc(C#N)cc2)C(=O)N(C)[C@@H](C)C(=O)N[C@@H](CC(N)=O)C(=O)N2CCC[C@H]2C(=O)N[C@@H](Cc2cnc[nH]2)C(=O)N[C@@H](CC(C)C)C(=O)N2C[C@H](O)C[C@H]2C(=O)N[C@@H](Cc2c[nH]c3ccccc23)C(=O)N[C@@H](CO)C(=O)N[C@@H](Cc2c[nH]c3ccccc23)C(=O)N1C [Example 7046] ({CH2CO}-[Phe(4-CN)][NMeA]NPHL[Hyp]WSW[NMeNle][NMeNle]RCG-NH2; thioether N-14)
11 | 4.78 to 72.9 nM | 0.385 to 6.74 nM | CCCC[C@H]1C(=O)N(C)[C@@H](CCCC)C(=O)N[C@@H](CCCNC(=N)N)C(=O)N[C@H](C(=O)NCC(N)=O)CSCC(=O)N[C@@H](Cc2ccc(F)cc2)C(=O)N(C)[C@@H](C)C(=O)N[C@@H](CC(N)=O)C(=O)N2CCC[C@H]2C(=O)N[C@@H](Cc2cnc[nH]2)C(=O)N[C@@H](CC(C)C)C(=O)N2C[C@H](O)C[C@H]2C(=O)N[C@@H](Cc2c[nH]c3ccccc23)C(=O)N[C@@H](CO)C(=O)N[C@@H](Cc2c[nH]c3ccccc23)C(=O)N1C [Example 7047] ({CH2CO}-[Phe(4-F)][NMeA]NPHL[Hyp]WSW[NMeNle][NMeNle]RCG-NH2; thioether N-14)

Reference: patent US9850283B2, “Macrocyclic inhibitors of the PD-1/PD-L1 and CD80(B7-1)/PD-L1 protein/protein interactions” (BRISTOL-MYERS SQUIBB COMPANY, priority 2013, dated 2017)
